Source: patent US12173089B2, “Inhibition of pulmonary fibrosis with nutlin-3A and peptides” (BOARD OF REGENTS, THE UNIVERSITY OF TEXAS SYSTEM, priority 2013, dated 2024)

What was measured:
FL(IPF)-fibroblasts = experiment: Immunoblot of FL-fibroblast lysates for Col-I, PAI-1, p53 and uPA after exposure to nutlin-3a or CSP-4; format: cell-based, human; settings: nutlin-3a 10 μM, CSP-4 10 nM, 48 hrs
Experimental: FIGS. 8A-8C. Role of p53-fibrinolytic system cross-talk in nutlin-3a (NTL) or CSP-4-mediated inhibition of col-I expression in FL(IPF)-fibroblasts. (FIG. 8A) FL-fibroblasts were exposed to PBS, nutlin-3a (10 uM), CSP-4 (10 nM) or control peptide (CP) for 48 h. The cell lysates were immunoblotted for the expression of Col-I, PAI-1, p53, uPA and β-actin. (FIG. 8B) FL-fibroblasts cultured in 12 well plates in DMEM media were exposed to vehicle (PBS) or nutlin-3a, CSP-4 or CP. After 3 d, cells were detached and counted. (FIG. 8C) FL-fibroblasts were transduced with empty adenovirus vector alone (Ad-EV) or Ad-vector expressing p53 (Ad-p53), PAI-1 (Ad-PAI-1) or caveolin-1 (Ad-Cav-1). After 48 h, cell lysates were immunoblotted for Col-I, p53, PAI-1, uPA and β-actin.
FL-fibroblasts were exposed to PBS (control), nutlin-3a (10 μM), CSP-4 (10 nM) or CP for 48 hrs. Lysates were immunoblotted for the expression of Col-I, PAI-1, p53, and uPA. Cultured FL- were exposed to vehicle (PBS) or nutlin-3a, CSP-4 or CP and counted to assess proliferation. […] The process involves induction of p53 and PAI-1 expression, and concurrent inhibition of uPA.

BLM-treated mice = experiment: Established lung fibrosis in BLM-treated mice (CT scanning, lung function, trichrome staining, hydroxyproline, desmosine); format: in vivo; settings: for established lung fibrosis: WT mice, results reported herein and elsewhere
Experimental: FIGS. 10A-10D. Nutlin-3a (NTL) inhibits lung fibrosis in BLM-treated mice. Mice were exposed to BLM for 14 d to induce lung fibrosis. Saline treated mice were used as fibrosis controls. After 14 d, mice exposed to BLM were injected IV with either vehicle or nutlin-3 a (10 mg/kg body weight) (Zhang F et al. Drug Metab Dispos 39: 15-21, 2011) to determine whether nutlin-3 a inhibited established lung fibrosis. On day 21 after BLM injury, mice underwent CT scanning to assess the extent of fibrosis (FIG. 10A). One representative example is shown (n=9). (FIG. 10B) Lung compliance and resistance were measured in the same mice using the Flexivent system to assess improvement in lung function after nutlin-3 a treatment (n=9). (FIG. 10C) Lung sections were subjected to trichrome staining to assess lung architecture and collagen deposition as an indication of lung fibrosis. (FIG. 10D) Whole lung homogenates were analyzed for total collagen (hydroxyproline) and desmosine content as an independent assessment of changes in ECM.
FIGS. 11A-11D. CSP-4 inhibits established lung fibrosis and improves lung function. Mice were exposed to BLM to induce pulmonary fibrosis. After 14 d, the mice were injected IV with either vehicle or 1.5 mg/kg body weight of CSP-4 or control peptide (“CP”) of scrambled sequence. On d 21 after BLM injury, mice underwent CT scanning examine CSP-4 inhibition of established lung fibrosis (FIG. 11A). One representative example is shown (n=9). (FIG. 11B): Lung volumes were measured in the same mice (n=9) using quantitative CT renditions. (FIG. 11C): Lung sections were subjected to trichrome and H&E staining (not shown) to assess collagen deposition as an indicator of lung fibrosis. (FIG. 11D) Analysis of whole lung homogenates for total hydroxyproline content.
Mice exposed to BLM (or saline in controls) for 14 d to induce lung fibrosis were injected IV with nutlin-3a (10 mg/kg body weight) (Zhang et al, supra) or a vehicle control to determine and the effect on established lung fibrosis was examined. Fibrosis was evaluated by CT scanning and lung function (compliance and resistance) were measured using the Flexivent system. Lung sections were subjected to trichrome staining and H & E staining (the latter not shown) to assess lung architecture and collagen deposition as an indication of fibrosis. Finally, whole lung homogenates were analyzed for total collagen (hydroxyproline) and desmosine content (Bhandary Y P et al, Am J Physiol: Lung Cell Mol Physiol 302:L463-73, 2012; Bhandary Y P et al, Am J Pathol, 183: 131-43 2013) as an independent assessment of the ECM. […] Oral administration of Nutlin-3a 14 days after BLM injury likewise inhibited pulmonary fibrosis in mice.
Mice were exposed to BLM to induce pulmonary fibrosis. After 14 d, the mice were injected IV with either vehicle or 1.5 mg/kg body weight of CSP-4 (SEQ ID NO: 1) or control peptide (scrambled sequence of same amino acids; CP, SEQ ID NO:5) at 1.5 mg/kg body weight or vehicle was injected IV into mice exposed to BLM 14 days earlier. One week later, mice were tested by CT scanning to evaluate lung fibrosis. Lung volume was measured in the same mice using quantitative CT renditions.

FL-fibroblasts = experiment: Treatment of FL-fibroblasts with nutlin-3a or CSP-4 (findings stated in the summary); format: cell-based; settings: for miR-34a expression / production of ECM / uPAR expression: FL-fibroblasts
[1] = tested on: fibrotic lung tissue explants; experiment: Ex vivo treatment of fibrotic lung tissue explants of BLM mice, col-I and α-SMA by Western blotting; format: cell-based; settings: CSP-4 10 nM, nutlin-3a 10 μM, 72 h
Experimental: FIG. 13. Inhibition of BLM-induced pulmonary fibrosis by ex vivo treatment of WT mice lung tissues with CSP-4 or nutlin-3a (NTL). Mice were exposed to intranasal BLM for 21 d to induce pulmonary fibrosis. These mice (n=3) were sacrificed, lungs were excised, chopped into small pieces and placed in culture dishes with DMEM medium containing 10% fetal bovine serum. The tissue samples were later treated with CSP-4 (10 nM), control peptide (CP) and nutlin-3a (TL) (10 μM) for 72 h. Conditioned medium and tissue lysates were prepared and analyzed for changes in col-I, a-SMA and β-actin by Western blotting.
Mice were exposed to intranasal BLM for 21 d to induce pulmonary fibrosis, sacrificed, and their lungs excised and chopped into small pieces and placed into culture medium. These tissue samples were thereafter treated with 10 nM CSP-4 peptide, control peptide (CP) or nutlin-3a for 72 h. Conditioned medium and tissue lysates were and analyzed for changes in col-I and α-SMA by Western blotting. […] The present inventors' results provided herein and in recent reports (e.g., Bhandary et al, 2012, 2013, supra), strongly support the conception that p53-mediated downstream changes in uPA and PAI-1 regulates viability of FL-fibroblasts.

Row | Compound | PAI-1 expression (FL(IPF)-fibroblasts) | col-I expression (FL(IPF)-fibroblasts) | p53 expression (FL(IPF)-fibroblasts) | uPA expression (FL(IPF)-fibroblasts) | effect on established lung fibrosis (CT, compliance and resistance, trichrome, hydroxyproline, desmosine) (BLM-treated mice; IV 10 mg/kg body weight 14 d after BLM, read on day 21) | established lung fibrosis (BLM-treated mice; IV or oral administration beginning 14 d after BLM) | pulmonary fibrosis (BLM-treated mice; oral administration 14 days after BLM injury) | miR-34a expression (FL-fibroblasts) | production of ECM (FL-fibroblasts) | uPAR expression (FL-fibroblasts) | apoptosis of fibrotic fibroblasts (FL-fibroblasts; fibroblasts from lungs of patients with IPF and of mice with BLM-induced pulmonary fibrosis) | fibrosis ex vivo (changes in col-I and α-SMA) [1] | established lung fibrosis (BLM-treated mice; IP or IV administration beginning 14 d after BLM) | BLM-induced lung fibrosis (CT, lung volume, trichrome and H&E, hydroxyproline) (BLM-treated mice; IV 1.5 mg/kg body weight 14 d after BLM, read one week later)
1 | COc1ccc(C2=NC(c3ccc(Cl)cc3)C(c3ccc(Cl)cc3)N2C(=O)N2CCNC(=O)C2)c(OC(C)C)c1 (stereo not shown) [nutlin-3a, 4-2-4,5-dihydro-1H-imidazole-1-piperazin-2-one] | induction | inhibited | induction | inhibition | beneficial effect | mitigates | inhibited | restore | inhibits | inhibition | results in apoptosis | inhibited | – | –
2 | FTTFTVT [CSP-4] | induction | inhibited | induction | inhibition | – | – | – | restore | inhibits | inhibition | – | inhibited | mitigates | inhibited
